| melting point [°C] | Compound |
| --- | --- |
| 128 to 130 | COc1ccc2nccc([C@@H]3CN(CCCNS(=O)(=O)c4ccc5c(c4)NC(=O)CCS5)C(=O)O3)c2c1 |
| 150 to 155 | COc1ccc2nccc([C@@H]3CN(CCCNS(=O)(=O)c4ccc5c(c4)NC(=O)CO5)C(=O)O3)c2c1 |

Source: US7491714B2 (dated 2009)
